What was measured:
[1] = molecular target: T1, Insulin-like growth factor 1 receptor (Homo sapiens, UniProt P08069); assay: Inhibition of human GST-rTEV-tagged IGF1R (957 to 1367 residues) expressed in baculovirus infected insect Sf9 cells assessed as decrease in biotin-aminohexyl-AEEEEYMMMMAKKKK-NH2 phosphorylation after 1 hr by fluorometer
[2] = molecular target: T2, Insulin receptor (Homo sapiens, UniProt P06213); assay: Inhibition of human GST-rTEV-tagged insulin receptor (979 to 1382 residues) expressed in baculovirus infected insect Sf9 cells assessed as decrease in biotin-aminohexyl-AEEEEYMMMMAKKKK-NH2 phosphorylation after 1 hr by fluorometer
[3] = molecular target: T1, Insulin-like growth factor 1 receptor; assay: Inhibition of IGF1-induced human IGF1R autophosphorylation expressed in mouse NIH-3T3 cells preincubated for 2 hrs followed by IGF-1 induction measured after 15 mins by DELFIA; format: cell-based, NIH3T3
[4] = molecular target: T2, Insulin receptor; assay: Inhibition of insulin-induced human insulin receptor autophosphorylation expressed in mouse NIH-3T3 cells preincubated for 2 hrs followed by insulin induction measured after 15 mins by DELFIA; format: cell-based, NIH3T3
[5] = Cytotoxicity against human COLO205 cells assessed as cell growth inhibition after 72 hrs by Cell Titre Glo assay; format: functional, cell-based; conditions: COLO 205, 72 h
[6] = Cytotoxicity against human NCI-H929 cells assessed as cell growth inhibition after 72 hrs by Cell Titre Glo assay; format: functional, cell-based; conditions: NCI-H929, 72 h
[7] = Toxicity in nude mouse allografted with mouse LISN cells assessed as body weight loss at 50 to 100 mg/kg, qd for 21 days measured during compound dosing; format: organism-based; conditions: 504 h
[8] = Toxicity in nude mouse allografted with mouse LISN cells assessed as body weight loss at 30 mg/kg, qd for 21 days measured during compound dosing relative to control; format: organism-based; conditions: in vivo, 504 h
[9] = Toxicity in nude mouse allografted with mouse LISN cells assessed as body weight loss at 60 mg/kg, qd for 21 days measured during compound dosing relative to control; format: organism-based; conditions: in vivo, 504 h
[10] = Cytotoxicity against human RL cells after 3 days by InCell analyser assay; format: functional, cell-based; conditions: 72 h
[11] = Cytotoxicity against human GCT cells after 3 days by InCell analyser assay; format: functional, cell-based; conditions: 72 h
[12] = Cytotoxicity against HOS cells after 3 days by InCell analyser assay; format: functional, cell-based; conditions: Homo sapiens, 72 h
[13] = Cytotoxicity against human MT3 cells after 3 days by InCell analyser assay; format: functional, cell-based; conditions: MT-3, 72 h
[14] = Cytotoxicity against human BC3 cells after 3 days by InCell analyser assay; format: functional, cell-based; conditions: BC-3, 72 h
[15] = Cytotoxicity against human BC2 cells after 3 days by InCell analyser assay; format: functional, cell-based; conditions: BC-2, 72 h
[16] = Cytotoxicity against human SR cells after 3 days by InCell analyser assay; format: functional, cell-based; conditions: 72 h
[17] = Cytotoxicity against human JAR cells after 3 days by InCell analyser assay; format: functional, cell-based; conditions: 72 h
[18] = Cytotoxicity against human ES2 cells after 3 days by InCell analyser assay; format: functional, cell-based; conditions: ES-2, 72 h
[19] = Cytotoxicity against human SH4 cells after 3 days by InCell analyser assay; format: functional, cell-based; conditions: SH-4, 72 h
[20] = Cytotoxicity against human BC1 cells after 3 days by InCell analyser assay; format: functional, cell-based; conditions: BC1, 72 h
[21] = Cytotoxicity against human MC/CAR cells after 3 days by InCell analyser assay; format: functional, cell-based; conditions: 72 h
[22] = Cytotoxicity against human MX1 cells after 3 days by InCell analyser assay; format: functional, cell-based; conditions: MX1, 72 h
[23] = Cytotoxicity against human KLE cells after 3 days by InCell analyser assay; format: functional, cell-based; conditions: 72 h
[24] = Cytotoxicity against human NALM1 cells after 3 days by InCell analyser assay; format: functional, cell-based; conditions: NALM1, 72 h
[25] = Cytotoxicity against human U266B1 cells after 3 days by InCell analyser assay; format: functional, cell-based; conditions: U-266, 72 h
[26] = Cytotoxicity against human SCLC3 cells after 3 days by InCell analyser assay; format: functional, cell-based; conditions: SCLC3, 72 h
[27] = Cytotoxicity against human J82 cells after 3 days by InCell analyser assay; format: functional, cell-based; conditions: J82, 72 h
[28] = Cytotoxicity against human DK-MG cells after 3 days by InCell analyser assay; format: functional, cell-based; conditions: 72 h
[29] = Cytotoxicity against human MJ cells after 3 days by InCell analyser assay; format: functional, cell-based; conditions: 72 h
[30] = Cytotoxicity against human AGS cells after 3 days by InCell analyser assay; format: functional, cell-based; conditions: 72 h
[31] = Cytotoxicity against human A7 cells after 3 days by InCell analyser assay; format: functional, cell-based; conditions: 72 h
[32] = Cytotoxicity against human C3A cells after 3 days by InCell analyser assay; format: functional, cell-based; conditions: 72 h
[33] = Cytotoxicity against human DB cells after 3 days by InCell analyser assay; format: functional, cell-based; conditions: 72 h
[34] = Cytotoxicity against human M14 cells after 3 days by InCell analyser assay; format: functional, cell-based; conditions: M14, 72 h
[35] = Cytotoxicity against human HN5 cells after 3 days by InCell analyser assay; format: functional, cell-based; conditions: HN5, 72 h
[36] = Cytotoxicity against human C-4I cells after 3 days by InCell analyser assay; format: functional, cell-based; conditions: 72 h
[37] = Cytotoxicity against human H4 cells after 3 days by InCell analyser assay; format: functional, cell-based; conditions: H4, 72 h
[38] = Cytotoxicity against human 5637 cells after 3 days by InCell analyser assay; format: functional, cell-based; conditions: Homo sapiens, 5637, 72 h
[39] = Cytotoxicity against human CESS cells after 3 days by InCell analyser assay; format: functional, cell-based; conditions: 72 h
[40] = Cytotoxicity against human HT3 cells after 3 days by InCell analyser assay; format: functional, cell-based; conditions: HT-3, 72 h
[41] = Cytotoxicity against human T24 cells after 3 days by InCell analyser assay; format: functional, cell-based; conditions: T-24, 72 h
[42] = Cytotoxicity against human EM2 cells after 3 days by InCell analyser assay; format: functional, cell-based; conditions: EM-2, 72 h
[43] = Cytotoxicity against human ML2 cells after 3 days by InCell analyser assay; format: functional, cell-based; conditions: ML-2, 72 h
[44] = Cytotoxicity against human Y79 cells after 3 days by InCell analyser assay; format: functional, cell-based; conditions: Y79, 72 h
[45] = Cytotoxicity against human RD cells after 3 days by InCell analyser assay; format: functional, cell-based; conditions: 72 h

T2 sequence (P06213 28-758 limits assumed): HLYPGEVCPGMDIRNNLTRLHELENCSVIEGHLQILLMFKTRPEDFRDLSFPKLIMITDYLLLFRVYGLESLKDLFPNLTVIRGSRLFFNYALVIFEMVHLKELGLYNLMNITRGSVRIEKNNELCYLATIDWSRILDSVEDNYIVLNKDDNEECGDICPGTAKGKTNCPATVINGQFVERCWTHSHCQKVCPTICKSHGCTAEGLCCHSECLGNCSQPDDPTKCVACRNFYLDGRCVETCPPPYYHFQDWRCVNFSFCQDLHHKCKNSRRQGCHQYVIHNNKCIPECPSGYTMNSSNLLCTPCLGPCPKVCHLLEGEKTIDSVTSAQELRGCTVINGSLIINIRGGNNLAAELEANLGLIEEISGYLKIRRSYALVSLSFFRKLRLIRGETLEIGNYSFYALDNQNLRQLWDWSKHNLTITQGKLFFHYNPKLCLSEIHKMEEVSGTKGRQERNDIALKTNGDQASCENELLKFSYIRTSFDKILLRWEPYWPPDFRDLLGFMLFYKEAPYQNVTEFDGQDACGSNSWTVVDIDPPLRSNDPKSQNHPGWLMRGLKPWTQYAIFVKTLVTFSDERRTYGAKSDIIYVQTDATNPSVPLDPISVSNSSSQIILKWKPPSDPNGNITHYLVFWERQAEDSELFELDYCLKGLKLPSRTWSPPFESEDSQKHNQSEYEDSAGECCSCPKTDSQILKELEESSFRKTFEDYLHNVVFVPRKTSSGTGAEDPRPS
T2 sequence (P06213 763-1382 limits assumed): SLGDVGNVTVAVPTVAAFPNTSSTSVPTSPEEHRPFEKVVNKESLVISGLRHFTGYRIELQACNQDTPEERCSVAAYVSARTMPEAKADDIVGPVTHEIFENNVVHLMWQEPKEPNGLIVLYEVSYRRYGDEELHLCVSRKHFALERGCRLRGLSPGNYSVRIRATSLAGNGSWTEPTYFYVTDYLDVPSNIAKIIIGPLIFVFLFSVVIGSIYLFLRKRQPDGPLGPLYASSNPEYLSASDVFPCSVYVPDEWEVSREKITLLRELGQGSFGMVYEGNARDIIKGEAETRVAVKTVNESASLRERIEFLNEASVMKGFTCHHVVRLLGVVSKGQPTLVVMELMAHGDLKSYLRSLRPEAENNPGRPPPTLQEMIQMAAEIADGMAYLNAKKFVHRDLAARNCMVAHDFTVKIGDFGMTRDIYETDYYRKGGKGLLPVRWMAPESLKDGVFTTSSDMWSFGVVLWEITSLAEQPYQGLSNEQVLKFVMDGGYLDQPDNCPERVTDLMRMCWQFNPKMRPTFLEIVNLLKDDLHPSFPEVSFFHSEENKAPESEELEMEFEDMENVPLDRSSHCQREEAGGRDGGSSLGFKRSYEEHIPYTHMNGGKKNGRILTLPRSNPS

COc1cc(N2CCC(CCS(C)(=O)=O)CC2)ccc1Nc1nccc(-c2c(-c3ccc(OC)c(C(=O)Nc4c(F)cccc4F)c3)nc3cc(F)ccn23)n1
< 100 nM: IC50 [1] | IC50 [2]

COc1cc(N2CCC(N3CCCCC3)CC2)ccc1Nc1nccc(-c2c(-c3cccc(C(=O)Nc4c(F)cccc4F)c3)nc3cc(C(F)(F)F)ccn23)n1
> 500 nM: IC50 [4]
100 to 500 nM: IC50 [3]
< 100 nM: IC50 [1] | IC50 [2]

CCOc1cc(C2CCN(CCS(C)(=O)=O)CC2)ccc1Nc1nccc(-c2c(-c3ccc(OC)c(C(=O)Nc4c(F)cccc4F)c3)nc3ccccn23)n1
< 100 nM: IC50 [1] | IC50 [2] | IC50 [4]

COc1cc(N2CCC(N3CCN(S(C)(=O)=O)CC3)CC2)ccc1Nc1nccc(-c2c(-c3ccc(OC)c(C(=O)Nc4c(F)cccc4F)c3)nc3ccccn23)n1
< 100 nM: IC50 [1] | IC50 [2] | IC50 [4]

COc1cc(N2CCC(N3CCN(CCF)CC3)CC2)c(Cl)cc1Nc1nccc(-c2c(-c3cccc(C(=O)Nc4c(F)cccc4F)c3)nc3ccccn23)n1
250 to 1000 nM: IC50 [5]
< 250 nM: IC50 [6]

CCOc1cc(N2CCN(CCS(C)(=O)=O)CC2)c(C)cc1Nc1nccc(-c2c(-c3ccc(OC(C)C)c(C(=O)Nc4c(F)cccc4F)c3)nc3ccccn23)n1
100 to 1000 nM: IC50 [1]
< 100 nM: IC50 [2] | IC50 [3] | IC50 [4]

CCOc1cc(N2CCC(CCS(C)(=O)=O)CC2)c(C)cc1Nc1nccc(-c2c(-c3ccc(OC)c(C(=O)Nc4c(F)cccc4F)c3)nc3cc(F)ccn23)n1
< 100 nM: IC50 [1] | IC50 [2]

CCOc1ccc(-c2nc3ccccn3c2-c2ccnc(Nc3ccc(C4CCN(CCS(C)(=O)=O)CC4)cc3OC)n2)cc1C(=O)Nc1c(F)cccc1F
< 100 nM: IC50 [1] | IC50 [2] | IC50 [4]

COc1cc(N2CCC(N3CCN(CCS(C)(=O)=O)CC3)CC2)c(C)cc1Nc1nccc(-c2c(-c3cccc(C(=O)Nc4c(F)cccc4F)c3)nc3ccccn23)n1
< 100 nM: IC50 [1] | IC50 [2] | IC50 [4]

COc1cc(C2CCN(CCS(C)(=O)=O)CC2)ccc1Nc1nccc(-c2c(-c3ccc(OC)c(C(=O)Nc4c(F)cccc4F)c3)nc3ccccn23)n1
< 100 nM: IC50 [1] | IC50 [2]

CCOc1cc(N2CCN(CCS(C)(=O)=O)CC2)c(C)cc1Nc1nccc(-c2c(-c3ccc(OC)c(C(=O)Nc4c(F)cccc4F)c3)nc3ccccn23)n1
< 100 nM: IC50 [1] | IC50 [2] | IC50 [4]

CCOc1cc(C2CCN(CCS(C)(=O)=O)CC2)ccc1Nc1nccc(-c2c(-c3ccc(OC(C)C)c(C(=O)Nc4c(F)cccc4F)c3)nc3ccccn23)n1
100 to 1000 nM: IC50 [1] | IC50 [2]
< 100 nM: IC50 [3]

COc1cc(N2CCC(CCS(C)(=O)=O)CC2)c(C)cc1Nc1nccc(-c2c(-c3ccc(OC)c(C(=O)Nc4c(F)cccc4F)c3)nc3cc(F)ccn23)n1
< 100 nM: IC50 [1] | IC50 [2] | IC50 [4]

CN(C)CCOc1cccc(Nc2nccc(-c3c(-c4cccc(C(=O)Nc5c(F)cc(F)cc5F)c4)nc4ccccn34)n2)c1
< 100 nM: IC50 [2]

CCOc1cc(N2CCC(CCS(C)(=O)=O)CC2)c(C)cc1Nc1nccc(-c2c(-c3ccc(OC)c(C(=O)Nc4c(F)cccc4F)c3)nc3ccccn23)n1
Non-Toxic: Activity [7]

CCOc1cc(N2CCC(N3CCN(S(C)(=O)=O)CC3)CC2)c(CC)cc1Nc1nccc(-c2c(-c3ccc(OCC)c(C(=O)Nc4c(F)cccc4F)c3)nc3ccccn23)n1
< 100 nM: IC50 [3]
100 to 1000 nM: IC50 [1] | IC50 [2]

CCc1cc(Nc2nccc(-c3c(-c4ccc(OC)c(C(=O)Nc5c(F)cccc5F)c4)nc4ccccn34)n2)c(OC)cc1N1CCC(N2CCN(S(C)(=O)=O)CC2)CC1
Non-Toxic: Activity [8] | Activity [9]

COc1cc(N2CCC(N3CCCCC3)CC2)ccc1Nc1nccc(-c2c(-c3cccc(C(=O)Nc4c(F)cccc4F)c3)nc3ccccn23)n1
< 1000 nM: IC50 [12] | IC50 [13]
1000 to 5000 nM: IC50 [10] | IC50 [11] | IC50 [14] | IC50 [15] | IC50 [16] | IC50 [17] | IC50 [18] | IC50 [19] | IC50 [20] | IC50 [21] | IC50 [22] | IC50 [23] | IC50 [24] | IC50 [25] | IC50 [26] | IC50 [27] | IC50 [28] | IC50 [29] | IC50 [30] | IC50 [31] | IC50 [32] | IC50 [33] | IC50 [34] | IC50 [35] | IC50 [36]
> 5000 nM: IC50 [37] | IC50 [38] | IC50 [39] | IC50 [40] | IC50 [41] | IC50 [42] | IC50 [43] | IC50 [44] | IC50 [45]

— ChEMBL document CHEMBL3882727, “Imidazopyridine Kinase Inhibitors” (2008)
